Experimental data published in ChEMBL document CHEMBL1201862, “PubChem BioAssay data set” (2004).
Calls of active or inactive are those of the source.

How the values were obtained:
[1] = biological target: Sphingosine 1-phosphate receptor 1 (Homo sapiens, UniProt P21453); format: functional;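 further: Tango beta-arrestin reporter U2OS cells stimulated with S1P near its EC80; inhibitor potency meaning antagonism of receptor activation by the natural agonist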
[2] = biological target: T1, Sphingosine 1-phosphate receptor 4 (Homo sapiens, UniProt O95977); test: Fluorescence dose response cell-based high throughput screening assay for antagonists of the Sphingosine 1-Phosphate Receptor 4 (S1P4). [Related pubchem assays: 1524 (Confirmation in triplicates.), 1510 (Primary screen.)]; format: functional
T1 sequence (O95977 whole entry): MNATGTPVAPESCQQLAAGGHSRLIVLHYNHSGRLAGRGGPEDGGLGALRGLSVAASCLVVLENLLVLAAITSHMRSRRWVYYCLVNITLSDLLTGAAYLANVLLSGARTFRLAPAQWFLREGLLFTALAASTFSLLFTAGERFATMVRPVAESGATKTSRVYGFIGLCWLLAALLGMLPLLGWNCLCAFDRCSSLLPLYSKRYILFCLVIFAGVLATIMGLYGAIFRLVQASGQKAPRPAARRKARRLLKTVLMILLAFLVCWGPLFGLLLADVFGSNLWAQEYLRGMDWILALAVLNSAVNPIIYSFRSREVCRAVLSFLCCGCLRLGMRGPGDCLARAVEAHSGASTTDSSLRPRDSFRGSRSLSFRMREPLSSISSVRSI

Prothrombin = Prothrombin (Homo sapiens, UniProt P00734); test: Thrombin 1536 HTS Dose Response Confirmation. [Related pubchem assays: 1046 (Thrombin 1536 HTS; hits were confirmed in this assay)]; format: functional
Protein RecA = biological target: T2, Protein RecA (Mycobacterium tuberculosis, UniProt P9WHJ3); test: Fluorescence Cell-Free Homogeneous Dose Retest to Identify Inhibitors of RecA-Intein Splicing Activity. [Related pubchem assays (depositor defined):AID2097, AID2223, AID489010, AID492950]; format: functional
T2 sequence (P9WHJ3 whole entry): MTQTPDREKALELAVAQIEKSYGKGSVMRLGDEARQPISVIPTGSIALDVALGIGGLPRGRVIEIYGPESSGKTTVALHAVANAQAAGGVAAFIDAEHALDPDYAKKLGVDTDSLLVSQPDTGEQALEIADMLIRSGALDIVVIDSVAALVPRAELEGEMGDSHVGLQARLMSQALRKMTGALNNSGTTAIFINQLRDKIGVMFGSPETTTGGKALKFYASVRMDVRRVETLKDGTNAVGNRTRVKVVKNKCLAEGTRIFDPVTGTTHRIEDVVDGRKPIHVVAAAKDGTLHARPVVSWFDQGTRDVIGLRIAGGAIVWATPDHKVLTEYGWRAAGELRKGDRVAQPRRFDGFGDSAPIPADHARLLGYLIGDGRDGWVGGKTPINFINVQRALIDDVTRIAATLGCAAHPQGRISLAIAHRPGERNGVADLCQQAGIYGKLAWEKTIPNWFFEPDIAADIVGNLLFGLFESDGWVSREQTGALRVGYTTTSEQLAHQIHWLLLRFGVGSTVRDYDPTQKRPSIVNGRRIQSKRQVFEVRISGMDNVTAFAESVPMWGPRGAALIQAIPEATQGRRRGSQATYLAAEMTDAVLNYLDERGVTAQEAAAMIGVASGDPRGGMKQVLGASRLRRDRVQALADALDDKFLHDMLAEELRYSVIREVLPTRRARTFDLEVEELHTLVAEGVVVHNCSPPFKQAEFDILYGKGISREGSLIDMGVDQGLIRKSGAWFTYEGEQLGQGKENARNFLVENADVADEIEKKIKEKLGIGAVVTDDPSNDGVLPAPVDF

[3] = biological target: T3, Replicative DNA helicase DnaB (Mycobacterium tuberculosis, UniProt P9WMR3); test: DnaB intein splicing inhibitors, dose response, biochemical, cell-free fluorescence (AID 449749); format: functional
T3 sequence (P9WMR3 whole entry): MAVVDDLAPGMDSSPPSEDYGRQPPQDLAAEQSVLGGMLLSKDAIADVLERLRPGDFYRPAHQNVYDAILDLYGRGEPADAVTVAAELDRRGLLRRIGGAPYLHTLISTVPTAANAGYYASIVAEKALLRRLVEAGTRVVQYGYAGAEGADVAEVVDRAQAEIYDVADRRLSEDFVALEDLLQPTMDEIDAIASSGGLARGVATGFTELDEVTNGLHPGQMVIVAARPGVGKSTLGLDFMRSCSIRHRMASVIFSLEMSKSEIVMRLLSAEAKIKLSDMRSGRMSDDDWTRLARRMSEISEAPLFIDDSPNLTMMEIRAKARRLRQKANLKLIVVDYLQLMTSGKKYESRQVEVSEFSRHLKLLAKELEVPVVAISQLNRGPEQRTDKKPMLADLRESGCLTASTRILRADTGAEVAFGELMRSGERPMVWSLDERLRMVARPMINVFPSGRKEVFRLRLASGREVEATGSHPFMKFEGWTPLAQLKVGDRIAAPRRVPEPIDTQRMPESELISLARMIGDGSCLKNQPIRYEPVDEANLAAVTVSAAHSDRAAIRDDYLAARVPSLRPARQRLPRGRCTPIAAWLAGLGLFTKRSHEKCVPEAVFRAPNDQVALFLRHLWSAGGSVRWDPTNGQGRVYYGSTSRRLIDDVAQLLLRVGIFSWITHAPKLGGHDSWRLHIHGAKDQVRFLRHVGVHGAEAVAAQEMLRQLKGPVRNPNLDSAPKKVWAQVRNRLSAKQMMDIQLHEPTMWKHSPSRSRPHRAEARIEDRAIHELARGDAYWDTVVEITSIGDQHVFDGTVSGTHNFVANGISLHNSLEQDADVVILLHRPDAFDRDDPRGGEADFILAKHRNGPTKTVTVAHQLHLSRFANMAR

[4] = Luminescent dose response cell-based high throughput screening assay for inhibitors of the Janus kinase 2 mutant JAK2V617F. [Related pubchem assays: 1446 (Primary screen.), 1521 (Confirmation assay.), 1486 (Counter screen.)]; format: functional
Aspartyl aminopeptidase = biological target: T4, Aspartyl aminopeptidase (Plasmodium falciparum 3D7, UniProt Q8I2J3); test: Counterscreen for inhibitors of M1 and M17 aminopeptidases: QFRET-based biochemical high throughput dose response assay for inhibitors of the Plasmodium falciparum M18 Aspartyl Aminopeptidase (PFM18AAP). [Related PubChem assays: 1619 (Screening assay (M17LAP inhibitors).), 1445 (Screening assay (M1AAP inhibitors).)]
T4 sequence (Q8I2J3 whole entry): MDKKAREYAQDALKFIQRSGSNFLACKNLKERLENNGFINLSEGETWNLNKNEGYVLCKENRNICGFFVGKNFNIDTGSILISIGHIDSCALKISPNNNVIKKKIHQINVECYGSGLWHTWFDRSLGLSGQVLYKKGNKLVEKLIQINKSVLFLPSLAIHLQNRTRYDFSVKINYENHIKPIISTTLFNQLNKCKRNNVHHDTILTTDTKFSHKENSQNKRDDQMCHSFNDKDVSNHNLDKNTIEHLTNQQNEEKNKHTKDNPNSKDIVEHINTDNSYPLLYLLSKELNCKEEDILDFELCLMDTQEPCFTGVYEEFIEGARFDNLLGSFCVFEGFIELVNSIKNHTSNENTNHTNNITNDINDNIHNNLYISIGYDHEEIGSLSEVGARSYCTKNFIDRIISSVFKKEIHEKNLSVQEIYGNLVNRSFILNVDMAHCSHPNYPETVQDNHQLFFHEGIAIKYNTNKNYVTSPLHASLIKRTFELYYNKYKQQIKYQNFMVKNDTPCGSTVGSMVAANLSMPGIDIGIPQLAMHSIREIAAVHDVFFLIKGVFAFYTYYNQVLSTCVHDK

Procathepsin L = Procathepsin L (Homo sapiens, UniProt P07711); test: cathepsin L inhibitors, dose response, counter-screen for M1/M17 aminopeptidase inhibitor project, biochemical, QFRET, 1536-well (AID 2214)
Leucine aminopeptidase = biological target: T5, Leucine aminopeptidase (Plasmodium falciparum 3D7, UniProt Q8IL11); test: P. falciparum M17LAP inhibitors, primary screen, biochemical, fluorogenic H-Leu-NHMec substrate, 1536-well (AID 1619); format: functional
T5 sequence (Q8IL11 whole entry): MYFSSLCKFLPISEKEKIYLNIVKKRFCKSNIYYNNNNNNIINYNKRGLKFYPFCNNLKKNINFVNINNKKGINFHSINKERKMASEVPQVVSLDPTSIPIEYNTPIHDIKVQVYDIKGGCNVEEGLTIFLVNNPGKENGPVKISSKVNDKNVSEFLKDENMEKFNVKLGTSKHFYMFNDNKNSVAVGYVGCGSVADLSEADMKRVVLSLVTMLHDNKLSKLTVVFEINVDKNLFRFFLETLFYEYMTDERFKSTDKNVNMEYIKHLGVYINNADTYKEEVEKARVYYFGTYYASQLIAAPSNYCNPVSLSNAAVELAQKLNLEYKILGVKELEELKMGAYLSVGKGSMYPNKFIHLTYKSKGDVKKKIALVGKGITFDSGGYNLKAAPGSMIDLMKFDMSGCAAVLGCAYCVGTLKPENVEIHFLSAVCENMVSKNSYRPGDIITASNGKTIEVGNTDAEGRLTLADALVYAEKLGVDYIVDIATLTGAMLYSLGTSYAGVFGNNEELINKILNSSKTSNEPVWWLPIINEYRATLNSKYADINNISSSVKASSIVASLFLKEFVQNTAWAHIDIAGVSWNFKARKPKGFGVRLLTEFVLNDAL

[5] = Luminescence Cell-Based Dose Response to Identify Activators of 5'UTR Stem-Loop Driven Prion Protein mRNA Translation in H4-C Neuroglioblastoma Cells. [Related pubchem assays: 1829 (Project Summary), 1814 (Primary HTS)]; format: functional
H4 = test: Luminescence Cell-Based Dose Response HTS to Identify Activators of 5'UTR Stem-Loop Driven Prion Protein mRNA Translation in H4 Neuroglioblastoma Cells. [Related pubchem assays: 1829 (Project Summary), 1814 (Primary HTS)]; format: functional; conditions: Homo sapiens
[6] = Luminescence Cell-Based Dose Confirmation HTS to Identify Activators of 5'UTR Stem-Loop Driven Alpha-Synuclein mRNA Translation in H4 Neuroglioblastoma Cells. [Related pubchem assays: 1829 (Project Summary), 1814 (Primary HTS)]; format: functional
[7] = Luminescence Cell-Based Dose Response HTS to Identify Activators of Luciferase Translation or Activity in H4 […] Cells. [Related pubchem assays: 1829 (Project Summary), 1814 (Primary HTS)]; format: functional
[8] = Luminescence Cell-Based Dose Response to Identify Activators of Luciferase Translation or Activity in H4-C Neuroglioblastoma Cells. [Related pubchem assays: 1829 (Project Summary), 1814 (Primary HTS)]; format: functional
[9] = Luminescence Cell-Based Dose Confirmation to Identify Activators of 5'UTR Stem-Loop Driven Alpha-Synuclein mRNA Translation in H4 Neuroglioblastoma Cells. [Related pubchem assays: 1829 (Project Summary), 1814 (Primary HTS)]; format: functional
[10] = biological target: Epstein-Barr nuclear antigen 1 (Epstein-Barr virus (strain B95-8) (HHV-4) (Human herpesvirus 4), UniProt P03211); test: EBNA-1 inhibitors, dose response, biochemical, fluorescence polarization, 1536-well (AID 2381); set-up: species or system human gammaherpesvirus 4;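 further: fluorescence polarization of a Cy5 DNA probe bound by EBNA-1 protein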
[11] = biological target: Lytic switch protein BZLF1 (Epstein-Barr virus (strain B95-8) (HHV-4) (Human herpesvirus 4), UniProt P03206); test: EBV ZTA inhibitors, dose response, counter-screen for EBNA-1 inhibitor project, biochemical, fluorescence polarization, Epstein-Barr virus, 1536-well (AID 2377); set-up: species or system human gammaherpesvirus 4;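 further: fluorescence polarization of Cy5-labelled ZRE DNA probe bound by purified Zta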
Lytic switch protein BZLF1, sequence (P03206 whole entry): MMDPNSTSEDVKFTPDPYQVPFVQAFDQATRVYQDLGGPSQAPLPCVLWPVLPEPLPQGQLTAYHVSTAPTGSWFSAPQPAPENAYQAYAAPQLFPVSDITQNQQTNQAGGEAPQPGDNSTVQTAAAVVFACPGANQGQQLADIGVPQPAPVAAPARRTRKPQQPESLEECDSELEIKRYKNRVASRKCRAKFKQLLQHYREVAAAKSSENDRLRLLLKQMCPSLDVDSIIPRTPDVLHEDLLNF

Epstein-Barr nuclear antigen 1, sequence (P03211 whole entry): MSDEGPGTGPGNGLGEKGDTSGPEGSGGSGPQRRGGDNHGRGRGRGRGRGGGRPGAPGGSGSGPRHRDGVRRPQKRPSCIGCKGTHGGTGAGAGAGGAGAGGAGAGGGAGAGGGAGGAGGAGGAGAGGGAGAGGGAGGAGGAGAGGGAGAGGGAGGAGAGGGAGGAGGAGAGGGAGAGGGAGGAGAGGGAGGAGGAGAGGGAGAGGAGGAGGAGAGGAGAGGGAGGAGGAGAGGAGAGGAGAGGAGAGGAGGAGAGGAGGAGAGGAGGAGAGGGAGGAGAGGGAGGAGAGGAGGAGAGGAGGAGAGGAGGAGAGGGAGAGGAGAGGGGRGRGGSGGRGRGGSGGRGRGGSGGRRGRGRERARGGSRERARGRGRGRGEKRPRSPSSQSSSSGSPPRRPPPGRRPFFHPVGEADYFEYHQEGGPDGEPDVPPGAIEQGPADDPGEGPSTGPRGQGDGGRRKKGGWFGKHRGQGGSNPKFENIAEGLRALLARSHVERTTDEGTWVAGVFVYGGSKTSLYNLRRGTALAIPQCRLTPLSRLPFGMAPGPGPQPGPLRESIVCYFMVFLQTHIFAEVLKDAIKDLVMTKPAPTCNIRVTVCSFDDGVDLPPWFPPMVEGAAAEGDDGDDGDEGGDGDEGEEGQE
Procathepsin L, sequence (P07711 whole entry): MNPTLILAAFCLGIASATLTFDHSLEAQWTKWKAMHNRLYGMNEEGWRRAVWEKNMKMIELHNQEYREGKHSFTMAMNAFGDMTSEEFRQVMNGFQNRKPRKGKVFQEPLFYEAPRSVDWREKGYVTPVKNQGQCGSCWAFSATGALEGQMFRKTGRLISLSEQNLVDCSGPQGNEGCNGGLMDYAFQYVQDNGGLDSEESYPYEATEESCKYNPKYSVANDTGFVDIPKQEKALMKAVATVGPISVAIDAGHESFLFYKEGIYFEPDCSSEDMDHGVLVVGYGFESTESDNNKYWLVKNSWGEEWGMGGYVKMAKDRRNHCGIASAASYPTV
Sphingosine 1-phosphate receptor 1, sequence (P21453 whole entry): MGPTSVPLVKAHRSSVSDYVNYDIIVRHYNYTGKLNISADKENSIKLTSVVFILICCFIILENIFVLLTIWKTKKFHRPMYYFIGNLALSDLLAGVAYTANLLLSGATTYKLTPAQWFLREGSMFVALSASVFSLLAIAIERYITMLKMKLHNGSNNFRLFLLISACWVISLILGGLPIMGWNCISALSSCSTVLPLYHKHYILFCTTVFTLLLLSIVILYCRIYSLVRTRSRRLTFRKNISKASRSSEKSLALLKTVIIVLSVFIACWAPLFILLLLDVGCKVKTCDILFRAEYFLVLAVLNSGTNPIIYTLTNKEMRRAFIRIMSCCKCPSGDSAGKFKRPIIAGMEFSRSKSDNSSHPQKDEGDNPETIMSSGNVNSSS

## CCC(C)[C@@H](NC(=O)OC(C)(C)C)c1nnc(S(=O)(=O)Cc2cccc(C)c2)o1 (some centres not stated)
[1]
  IC50: > 49800 nM (not active)
[2]
  IC50: 2610 nM (active)
Prothrombin
  IC50: 3230 nM (active)
Protein RecA
  EC50: 2500 nM (active)
[3]
  AC50: 2310 nM (active)
[4]
  IC50: 826 nM (active)

## COc1cc(NC(=O)CSc2nc3cc(C)ccc3cc2C)c(C(=O)O)cc1OC
Aspartyl aminopeptidase
  IC50: > 73500 nM (not active)
Procathepsin L
  IC50: > 59600 nM (not active)
Leucine aminopeptidase
  IC50: 1930 nM (active)

## COc1ccc(/C=C2\SC(=O)N(CCNC(=O)Cn3cnnn3)C2=O)cc1
[5]
  EC50: 533 nM (active)
H4
  EC50: 122 nM (active)
[6]
  EC50: 2280 nM (active)
[7]
  EC50: 33300 nM (active)
[8]
  EC50: 405 nM (active)
[9]
  EC50: 926 nM (active)

## COc1cc(NC(=O)COC(=O)/C=C/c2ccc(Cl)cc2Cl)cc(OC)c1
[10]
  IC50: 16100 nM (not active)
[11]
  IC50: > 111000 nM (not active)
